Patent EP4656642A1, “ESTROGEN RECEPTOR PROTEOLYSIS TARGETING CHIMERA COMPOUND AND USE THEREOF” (GAN & LEE PHARM CO., LTD, priority 2023, dated 2024)

How the values were obtained:
Type in all cases: cell-based
ERα [1] = molecular target: T1, ERα (Homo sapiens, UniProt P03372); test: Degradation of ERα in MCF-7 cells (immunoblotting, 4 h)
T1 sequence (P03372 1-595): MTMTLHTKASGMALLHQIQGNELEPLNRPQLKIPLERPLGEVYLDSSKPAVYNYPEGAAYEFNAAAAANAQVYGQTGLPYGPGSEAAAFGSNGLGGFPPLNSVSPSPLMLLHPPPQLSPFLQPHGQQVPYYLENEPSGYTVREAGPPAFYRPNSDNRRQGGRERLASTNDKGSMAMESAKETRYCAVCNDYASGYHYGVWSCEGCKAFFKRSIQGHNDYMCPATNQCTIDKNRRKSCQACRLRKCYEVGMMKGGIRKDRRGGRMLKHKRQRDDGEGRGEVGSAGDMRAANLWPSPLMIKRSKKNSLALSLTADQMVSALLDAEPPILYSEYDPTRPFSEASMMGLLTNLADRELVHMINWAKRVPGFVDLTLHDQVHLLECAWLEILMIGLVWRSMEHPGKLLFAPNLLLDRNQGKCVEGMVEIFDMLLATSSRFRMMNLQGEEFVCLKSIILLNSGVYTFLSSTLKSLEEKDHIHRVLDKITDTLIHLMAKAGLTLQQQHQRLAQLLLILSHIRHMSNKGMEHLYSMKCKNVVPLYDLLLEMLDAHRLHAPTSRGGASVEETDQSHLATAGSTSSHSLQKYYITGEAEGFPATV
In short: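 Degradation rate reflects ERα band intensity, corrected to an internal reference protein, relative to control. Values come from Western blotting of lysates from MCF-7 cells exposed 4 h at 37°C to compounds at final concentrations of 0.15-1000nM.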

ERα [2] = molecular target: T1, ERα; test: Degradation of ERα in T-47D cells (immunoblotting, 4 h); parameters: host or cells: T-47D
In short: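 ERα protein levels were assessed by immunoblot of RIPA lysates (with protease inhibitor) after 4 h exposure at 37°C. Compound was added in DMSO to T-47D cells at final concentrations of 0.15-1000 nM.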

MCF-7 cells = test: Inhibition of cell proliferation of MCF-7 cells (CCK-8, 9 days); conditions: treated for 9 days, CCK-8 kit (Table 6)
In short: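 Read-out was CCK-8 viability after 9-day continuous exposure (37°C, 5% CO2) of MCF-7 cells plated at 800/well in 10% FBS DMEM across several compound concentrations. Values are proliferation IC50s.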

Compound	Degradation rate (%) of ERα in MCF-7 cells (ERα [1]; 1nM compound) [%]	Degradation rate (%) of ERα in MCF-7 cells (ERα [1]; 10nM compound) [%]	Degradation rate (%) of ERα in T-47D cells (ERα [2]; 1nM compound) [%]	Degradation rate (%) of ERα in T-47D cells (ERα [2]; 10nM compound) [%]	IC50 (MCF-7 cells) [nM]
O=C1CCC(N2Cc3c(ccc4c3OCC43CCN(c4ccc(C(=O)N5CCN(c6ccc([C@@H]7c8ccc(O)cc8CC[C@@H]7c7ccccc7)cc6)CC5)cn4)CC3)C2=O)C(=O)N1 (some centres unmarked) [J2]	21	41	37	67	303000
C[C@@H]1Cc2c(ccc3[nH]ncc23)C(c2ccc(N3CCC4(CCN(CC(=O)N5CCC6(CC5)COc5c6ccc6c5CN(C5CCC(=O)NC5=O)C6=O)C4)CC3)cn2)N1CC(F)(F)F (some centres unmarked) [J11]	40	75	52	82	4370
O=C1CCC(N2Cc3c(ccc4c3OCC43CCN(C4CCN(C(=O)C5CCC6(CC5)CN(c5ccc([C@@H]7c8ccc(O)cc8CC[C@@H]7c7ccccc7)cc5)C6)CC4)CC3)C2=O)C(=O)N1 (some centres unmarked) [A84]	63	74	56	77	5.26
O=C1CCC(N2Cc3c(ccc4c3OCC43CCN(C[C@H]4CC[C@@H](C#Cc5ccc([C@@H]6c7ccc(O)cc7CC[C@@H]6c6ccccc6)cc5)CC4)CC3)C2=O)C(=O)N1 (some centres unmarked) [H53]	10	14	5	35	41.9
O=C1CCC(N2Cc3c(ccc4c3OCC43CCN(C[C@H]4CC[C@H](C(=O)N5CCN(c6ccc([C@@H]7c8ccc(O)cc8CC[C@@H]7c7ccccc7)cc6)CC5)CC4)CC3)C2=O)C(=O)N1 (some centres unmarked) [G18]	63	77	49	78	129
O=C1CCC(N2Cc3c(ccc4c3OCC43CCN(C(=O)C4CCN(CC5CCN(c6ccc([C@@H]7c8ccc(O)cc8CC[C@@H]7c7ccccc7)cc6)CC5)CC4)CC3)C2=O)C(=O)N1 (some centres unmarked) [K34]	75	76	76	86	10.5
O=C1CCC(N2Cc3c(ccc4c3OCC43CCN(C4CCN(C(=O)C5CCN(c6ccc(C7c8ccc(O)cc8CCC7c7ccccc7)cc6)CC5)C(C(=O)N5CCCCC5)C4)CC3)C2=O)C(=O)N1 (centres unmarked) [K31]	61	65	73	79	1.53
O=C1CCC(N2Cc3cc4c(cc3C2=O)C2(CCN(C3CCC5(CC3)CCN(c3ccc([C@@H]6c7ccc(O)cc7CC[C@@H]6c6ccccc6)cc3)CC5)CC2)CO4)C(=O)N1 (some centres unmarked) [L5]	6	4	12	45	830
CN(C[C@H]1CC[C@H](C(=O)N2CCC3(CC2)COc2c3ccc3c2CN(C2CCC(=O)NC2=O)C3=O)CC1)[C@H]1CCN(c2ccc([C@@H]3c4ccc(O)cc4CC[C@@H]3c3ccccc3)cc2)C[C@H]1F (some centres unmarked) [D13]	42	68	54	82	186
O=C1CCC(N2Cc3c(ccc4c3OCC43CCN(C4CCN(C(=O)C5CCC6(CC5)CCN(c5ccc([C@@H]7c8ccc(O)cc8CC[C@@H]7c7ccccc7)cc5)CC6)CC4)CC3)C2=O)C(=O)N1 (some centres unmarked) [B18]	36	64	54	79	15.6
O=C1CCC(N2Cc3c(ccc4c3OCC43CCN(C4CCN(C(=O)C5CCN(c6ccc(C7c8ccc(O)cc8CCC7c7ccccc7)cc6)CC5)C(C(=O)N5CCCC5)C4)CC3)C2=O)C(=O)N1 (centres unmarked) [K30]	48	55	63	73	7.34
C[C@@H]1Cc2cc(O)ccc2[C@@H](c2c(F)cc(N3CCC(C(=O)N4CCC(N5CCC6(CC5)COc5c6ccc6c5CN(C5CCC(=O)NC5=O)C6=O)CC4)CC3)cc2F)N1CC(F)F (some centres unmarked) [I2]	63	61	56	55	11.7
O=C1CCC(N2Cc3c(ccc4c3OC3(CC4)CCN(C4CC5(CCN(c6ccc([C@@H]7c8ccc(O)cc8CC[C@@H]7c7ccccc7)cc6)CC5)C4)CC3)C2=O)C(=O)N1 (some centres unmarked) [L21]	-11	-17	26	21	91
O=C1CCC(N2Cc3c(ccc4c3OCC43CCN(CC4CN(C(=O)C5CCN(c6ccc([C@@H]7c8ccc(O)cc8CC[C@@H]7c7ccccc7)cc6)CC5)C4)CC3)C2=O)C(=O)N1 (some centres unmarked) [D5]	61	58	68	80	180
O=C1CCC(N2Cc3c(ccc4c3OC3(CC4)CCN(C4CCN(C(=O)C5CCN(c6ccc([C@@H]7c8ccc(O)cc8CC[C@@H]7c7ccccc7)cc6)CC5)CC4)CC3)C2=O)C(=O)N1 (some centres unmarked) [G15]	-19	20	39	72	10.2
O=C1CCC(N2Cc3c(ccc4c3OCC43CCN(C(=O)C4CN(CC5CCN(c6ccc([C@@H]7c8ccc(O)cc8CC[C@@H]7c7ccccc7)cc6)CC5)C4)CC3)C2=O)C(=O)N1 (some centres unmarked) [K33]	57	62	58	70	17.5
O=C1CCC(N2Cc3cc4c(cc3C2=O)OC2(CC4)CN(C(=O)CN3CCC4(CC3)CCN(c3ccc([C@@H]5c6ccc(O)cc6CC[C@@H]5c5ccccc5)cc3)CC4)C2)C(=O)N1 (some centres unmarked) [A70]	18	71	40	75	41.9
O=C1CCC(N2Cc3c(ccc4c3OCC43CCN(CC(=O)N4CCC5(CCC(C#Cc6ccc([C@@H]7c8ccc(O)cc8CC[C@@H]7c7ccccc7)cc6)CC5)CC4)CC3)C2=O)C(=O)N1 (some centres unmarked) [B29]	7	16	-11	14	224
CN(C)C(=O)[C@H]1CC(N2CCC3(CC2)COc2c3ccc3c2CN(C2CCC(=O)NC2=O)C3=O)CCN1C1CC2(CCN(c3ccc([C@@H]4c5ccc(O)cc5CC[C@@H]4c4ccccc4)cc3)CC2)C1 (some centres unmarked) [K32]	66	88	67	90	0.779
